Counter-ions that a name gives are not always drawn.
Columns and labels:
Format in all cases: physicochemical
[1] = Thermogravimetric analysis (TGA), weight loss
Method: Differential scanning calorimetry (DSC) is a thermoanalytical technique where the difference in the amount of heat required to increase the temperature of a sample and reference is measured as a function of temperature. Using this technique, phase transitions of a sample can be measured such as melting point. Decomposition can also be observed by DSC as can dehydration events. In the context of DSC measurements, there is also variability and the term “about” means ±1° C., and such variability is to be understood whether a DSC measurement is prefaced by “about” or not unless specified otherwise. Exemplary methods for collecting DSC data are set forth in Example 21. Thermogravimetric analysis, sometimes referred to as, thermal gravimetric analysis (TGA) is a thermal method of thermal analysis where the mass of a sample is measured as a function of time as the sample temperature changes. For example, when samples disclosed herein are heated and a loss in mass is measured prior to decomposition, this is likely indicative of the loss of water from the sample and may indicate that the sample being heated is a hydrate. Exemplary methods for collecting TGA are set forth in Example 23.
TG analysis was performed using a Mettler-Toledo TGA/DSC3 analyzer. Temperature and enthalpy adjustments were performed using indium, tin, and zinc, and then verified with indium. The balance was verified with calcium oxalate. The sample was placed in an open aluminum pan. The pan was hermetically sealed, the lid pierced, then inserted into the TG furnace. A weighed aluminum pan configured as the sample pan was placed on the reference platform. The furnace was heated under nitrogen. Each sample was heated from ambient temperature to 350° C. at 10° C./min. Although thermograms are plotted by reference temperature (x-axis), results are reported according to sample temperatures.

[2] = Overall rank order of powder flowability (angle of repose and Hausner ratio); settings: for Powder flowability, overall (in words): angle of repose and compressibility index/Hausner ratio combined; for Angle of Repose Rank Order / Hausner Ratio Rank Order / Overall Rank Order (Total Score): lower is better flow; for Overall Rank Order (Total Score): sum of both ranks
From the text: Table C5 was generated by adding the relative rank order of the 25HC3S salts for angle of repose and Hausner ratio results, and creating an Over All Rank Order of the salts powder flowability. The salts with the lower overall rank order score had better powder flowability.

[3] = Hausner ratio and compressibility index of 25HC3S salts; settings: for Compressibility Index: Table C3 heads this index in %
Method: Although there are some variations in the method of determining the compressibility index and Hausner ratio, the basic procedure is to measure the unsettled apparent volume, VO, and the final tapped volume, Vf, of the powder after tapping the material until no further volume changes occur. The compressibility index and the Hausner ratio are calculated as follows: […]
Both the Hausner ratio and the compressibility index are empirically established. The Hausner ratio and compressibility index are not absolute properties of a material; its value can vary depending on the methodology used to determine them. In this case, since the 14 salts of 25HC3S were measured the same way, the relative values should be accurate.
Table C3, from USP <1174> Powder Flow, describes the flow character of the powder based on the compressibility index and Hausner ratio values.
Powder was carefully poured into a 5 mL glass graduated cylinder (to contain) until it was close to or at 5.0 mL. This initial volume was recorded as Vo. The graduated cylinder was tapped on a hard surface for 200 times and the volume was recorded. The cylinder was tapped 100 times more, and the final volume Vf was recorded. Typically, the volume after 200 taps was identical to after 300 taps, or within 0.1 mL.

[4] = Solid-state chemical stability of 25HC3S salts at 2-8° C., 60° C. and 80° C. (HPLC assay and degradation products); settings: for % Impurities, Total / % Impurities, 25-HC: ND = Not Detected; for % Impurities, 25-HC: 25-Hydroxy-Cholesterol; for % Recovery: vs 2-8° C.; for Stability after 1 week at 60° C. (in words): 1 week (after 3 weeks at 2-8° C.)
Method: Approximately 25 mg of each crystalline 25HC3S salt was added to 20 mL glass vials and each powder weight was recorded. Four vials were prepared for each salt and stored at 2-8° C. or 80° C. according to Table B2. The samples were scheduled initially to pull for testing at 3 weeks and 6 weeks' time points.
For those […] salts, the remaining vials stored at 2-8° C. for 3 weeks were allocated for storage at 60° C. for 1 week. Additional stability data was generated according to Table B3.
Based on the molecular weights, and expected UV response factors of each salt used in this study, the expected analytical sample concentrations were within the range of the 25HC3S sodium reference standards (0.75 mg/mL to 1.25 mg/mL as 25HC3S sodium salt). However, due to the lower-than-expected purity of the 25HC3S benzathine salt, an additional standard was prepared at 0.125 mg/mL as 25HC3S sodium salt.
Samples were prepared by pipetting 20 mL of 100% methanol into each vial and mixing well, with sonication and vortexing to fully dissolve the samples for HPLC analysis.
Samples were prepared by pipetting 20 mL of 100% methanol into each vial followed by two rounds of sonication for 30 minutes, with 30 seconds of vortexing before and after each round. Sample aliquots were then centrifuged at 10,000 RPM for 10 minutes and the supernatant collected for HPLC analysis.
Samples were prepared by pipetting 20 mL of 100% methanol into each vial, followed by 5 seconds of vortexing. The undissolved powder in methanol was quantitatively transferred into 200 mL volumetric flasks. The sample vials were rinsed 3 times with methanol, with each rinsate transferred to the 200 mL volumetric flasks. The volumetric flasks were filled to about 90% volume and sonicated for 10 minutes to fully dissolve the powder. The flasks were filled to volume with methanol, mixed well and aliquots collected for HPLC analysis.
HPLC analysis was performed.

[5] = Angle of repose of 25HC3S salts; settings: for Flow Property per USP<1174> Powder Flow: classification by angle of repose
Method: Angle of repose is measured as follows. Powder is poured from a funnel onto a flat surface until a cone of powder is created. The angle of repose is calculated according to the following equation: […]
Table C1, from USP<1174> Powder Flow, describes the powder flow properties correlating to the angles of repose.
The lower the angle of repose, the more flowable is a material. Powder with an angle of repose between 25° to 30° will show excellent flow through a hopper, feed frame, die table and die bore smoothly. From 41° to greater than 66°, you may experience powder flow difficulties like rat-holing or bridging within the hopper.
The angle of repose was determined by pouring approximately 2 grams of a 25HC3S salt through a 7 mm inner diameter plastic tube into the center of a 21.14 mm diameter rubber O-ring, resulting in the formation of a powder cone of fixed diameter. The height of the cone was estimated with calipers.

[6] = 2-8° C., 3 wk, listed as 25HC3S potassium
[7] = 60° C., 1 wk, listed as 25HC3S potassium
[8] = 2-8° C., 3 wk, listed as 25HC3S calcium

CC(CCCC(C)(C)O)C1CCC2C3CC=C4CC(OS(=O)(=O)O)CCC4(C)C3CCC12C (stereo not drawn) [Salt #1]
Weight loss by TGA, 100° C. to 180° C. ([1]; 100° C. to 180° C.): 1.7% | Weight loss by TGA to about 100° C. ([1]; to about 100° C.): about 0.9% | Powder flowability, overall (in words) ([2]; listed as potassium): top three | Angle of Repose Rank Order ([2]; listed as 25HC3S potassium): 6 | Hausner Ratio Rank Order ([2]; listed as 25HC3S potassium): 3 | Overall Rank Order (Total Score) ([2]; listed as 25HC3S potassium): 9 | Compressibility Index ([3]; listed as 25HC3S potassium): 26 | Hausner Ratio ([3]; listed as 25HC3S potassium): 1.35 | % Impurities, Total [4, 6]: 1.3% | % Impurities, 25-HC [4, 6]: 0.2% | % Impurities, 25-HC [4, 7]: 0.3% | Physical and chemical solid-state stability (comments) ([4]; 60° C., 1 week, listed as 25HC3S Potassium): Stable after 1 week at 60 C. | Assay ([4]; 60° C., 1 wk (after 3 weeks at 2-8° C.), 10080 min, listed as 25HC3S potassium, 10080 min): 103.1 % w/w | % Recovery of 2-8° C./3 wk vs 60° C./1 wk ([4]; 60° C., 1 wk, 10080 min, listed as 25HC3S potassium): 105.4% | % Impurities, Total [4, 7]: 1.6% | Physical and chemical solid-state stability (comments) ([4]; 80° C., 3 weeks, listed as 25HC3S Potassium): totally decomposed after 3 weeks | % Recovery ([4]; 80° C., 3 wk, 30240 min, listed as 25HC3S potassium, 30240 min): 0.0% | Assay ([4]; 80° C., 3 wk, 30240 min, listed as 25HC3S potassium): 0.0 % w/w | % Impurities, Total ([4]; 80° C., 3 wk, listed as 25HC3S potassium): 100% | remaining at 504 h ([4]; solid state, 2-8° C., 3 wk, read-out: Assay): 97.8% | Stability after 1 week at 60° C. (in words) ([4]; solid state, 60° C.): stable | Stability after 3 weeks at 80° C. (in words) ([4]; solid state, 80° C., 3 weeks): totally decomposed | Flow Property per USP<1174> Powder Flow ([5]; listed as 25HC3S potassium): Fair - aid not needed | Angle of Repose ([5]; listed as 25HC3S potassium): 37.7 degrees | Angle of Repose, Rounded Whole Number ([5]; listed as 25HC3S potassium): 38 degrees

CC(CCCC(C)(C)O)C1CCC2C3CC=C4CC(OS(=O)(=O)O)CCC4(C)C3CCC12C (stereo not drawn) [Salt #2]
Weight loss by TGA, about 112° C. to about 130° C. ([1]; about 112° C. to about 130° C.): 3.1% | Weight loss by TGA, room temperature to about 93° C. ([1]; room temperature to about 93° C.): about 0.9% | Powder flowability, overall (in words) ([2]; listed as calcium): poorer flowability | Angle of Repose Rank Order ([2]; listed as 25HC3S calcium): 11 | Hausner Ratio Rank Order ([2]; listed as 25HC3S calcium): 11 | Overall Rank Order (Total Score) ([2]; listed as 25HC3S calcium): 22 | Compressibility Index ([3]; listed as 25HC3S calcium): 36 | Hausner Ratio ([3]; listed as 25HC3S calcium): 1.56 | Assay ([4]; 2-8° C., 3 wk, 30240 min, listed as 25HC3S calcium): 92.9 % w/w | % Impurities, Total [4, 8]: 1.6% | Overall physical and chemical stability (in words) ([4]; 2-8° C., 60° C., 80° C.): least physically and chemically stable | Overall physical and chemical stability (in words) ([4]; 2-8° C., 60° C., 80° C., listed as 25HC35S calcium): least stable | % Impurities, 25-HC [4, 8]: 0.2% | Physical and chemical solid-state stability (comments) ([4]; 60° C., 1 week, listed as 25HC3S Calcium): Totally decomposed after 1 week at 60 °C | Assay ([4]; 60° C., 1 wk (after 3 weeks at 2-8° C.), 10080 min, listed as 25HC3S calcium, 10080 min): 0.0 % w/w | % Recovery of 2-8° C./3 wk vs 60° C./1 wk ([4]; 60° C., 1 wk, 10080 min, listed as 25HC3S calcium): 0.0% | Physical and chemical solid-state stability (comments) ([4]; 80° C., 3 weeks, listed as 25HC3S Calcium): Totally decomposed after 1 week at 60 °C and after 3 weeks at 80 °C | % Recovery ([4]; 80° C., 3 wk, 30240 min, listed as 25HC3S calcium, 30240 min): 0.0% | Assay ([4]; 80° C., 3 wk, 30240 min, listed as 25HC3S calcium): 0.0 % w/w | % Impurities, Total ([4]; 80° C., 3 wk, listed as 25HC3S calcium): 100% | degradants dissolved in the diluent (comments) ([4]; after 1 week at 60° C. and 3 weeks at 80° C.): degradants were dissolved in the diluent.extract | Stability after 1 week at 60° C. (in words) ([4]; solid state, 60° C.): totally decomposed | Stability after 3 weeks at 80° C. (in words) ([4]; solid state, 80° C., 3 weeks): totally decomposed | Flow Property per USP<1174> Powder Flow ([5]; listed as 25HC3S calcium): Passable - may hang up | Angle of Repose ([5]; listed as 25HC3S calcium): 42.6 degrees | Angle of Repose, Rounded Whole Number ([5]; listed as 25HC3S calcium): 43 degrees
